One experiment has as its target human AOC3 enzyme (Homo sapiens (Human), UniProt Q16853). Briefly: AOC3 biochemical assay (MAO-Glo). Particulars: read-out: AOC3 IC50. An excerpt:
The MAO-Glo™ Assay (commercially available from PROMEGA, #V1402) provides a sensitive method for the measurement of monoamine oxidase (MAO) activity (Valley, M. P. et al., 2006, Anal. Biochem. 359: 238-246) from a variety of tissues, biofluids or recombinant expressed or purified enzymes. As substrate a derivate of the beetle luciferin ((4S)-4,5-dihydro-2-(6-hydroxybenzothiazolyl)-4-thiazole-carboxylic acid) is used, which is oxidized at a primary amine moiety. After a spontaneous elimination and a catalyzed esterase reaction, the turnover of the luciferine by the luciferase is recorded as a signal of AOC3 activity.
An aliquot of 3 μL of the compound dilution is added to a 384 well plate (Optiplate, PS, flat bottom, white, PERKIN ELMER, #6007290) with a final DMSO concentration of 6.6%. Recombinant CHO cells, overexpressing the human (1500 cells/well), mouse (1000 cells/well) or rat (500 cells/well) AOC3 enzyme are diluted in reaction buffer and added in a volume of 15 μL to the wells. After incubation for 20 minutes at 37° C., 2 μL of MAO substrate (dissolved in DMSO at 16 mM, adjusted to assay concentration in reaction buffer to a final assay concentration of 20 μM) is added and further incubated for 60 minutes at 37° C. The turnover of the substrate is determined by the addition of 20 μL of the detection-mix which was generated by the addition of reconstitution buffer with esterase (PROMEGA, #V1402) to the luciferine detection reagent (PROMEGA, #V1402). After an incubation period of 20 minutes, the luminescent signal is measured with Envision 2104 Multilabel Reader (PERKIN ELMER).

The next experiment addresses AOC2 (Homo sapiens (Human), UniProt O75106). Put plainly: AOC2 biochemical assay (Amplex Red). Particulars: for IC50: read-out: AOC2 IC50. The protocol: An aliquot of 5 μL of the compound dilution is added to a 96 well plate (flat bottom F, black, GREINER bio-one, #655900) in a DMSO concentration of 2%. […] Cells are cultured for 3 days in EMEM culture medium containing 10% FCS (#04-00-1A, Biological Industries). After washing twice with ice cold PBS, cells are lysed by mechanic homogenation and cleared supernatants are shock frozen in liquid nitrogen and stored at -80° C. […] An Aliquot of 45 μL is added to the compound dilution and incubated for 30 min at 37° C. The enzymatic reaction is started with the addition of 50 μL of Amplex® Red reaction mix (final assay concentration: 100 mM sodiumphosphate, 120 μM Amplex® Red reagent (#A22177 Molecular Probes), 1.5 U/mL Horseradish Peroxidase (#P8375 Sigma-Aldrich), 2 mM phenylethylamine (#[…] Sigma-Aldrich), 0.05% Pluronic F-127 (#P3000MP Sigma-Aldrich), pH 7.4, 37° C.). The turnover per time of the substrate is determined directly with a fluorescence reader (Ex 540 nm/Em 590 nm) like Envision 2104 Multilabel Reader (PERKIN ELMER) for 60 min.

For the next experiment, the target named is AOC1 (Homo sapiens (Human), UniProt P19801). Put plainly: AOC1 biochemical assay (Amplex Red). The protocol: The Amplex® Red Assay (available from Thermo Fisher Scientific) provides a sensitive method for the detection of H2O2 generated during enzymatic reactions like the amine oxidation catalyzed by AOC1. The assay reagent is a colorless substrate (N-acetyl-3,7-dihydroxyphenoxazine) that reacts in a 1:1 stoichiometry with hydrogen peroxide (H2O2) to produce the fluorescent dye resorufin (7-hydroxyphenoxazin-3-one, excitation/emission maxima=570/585 nm).
AOC1, sequence (P19801 20-751): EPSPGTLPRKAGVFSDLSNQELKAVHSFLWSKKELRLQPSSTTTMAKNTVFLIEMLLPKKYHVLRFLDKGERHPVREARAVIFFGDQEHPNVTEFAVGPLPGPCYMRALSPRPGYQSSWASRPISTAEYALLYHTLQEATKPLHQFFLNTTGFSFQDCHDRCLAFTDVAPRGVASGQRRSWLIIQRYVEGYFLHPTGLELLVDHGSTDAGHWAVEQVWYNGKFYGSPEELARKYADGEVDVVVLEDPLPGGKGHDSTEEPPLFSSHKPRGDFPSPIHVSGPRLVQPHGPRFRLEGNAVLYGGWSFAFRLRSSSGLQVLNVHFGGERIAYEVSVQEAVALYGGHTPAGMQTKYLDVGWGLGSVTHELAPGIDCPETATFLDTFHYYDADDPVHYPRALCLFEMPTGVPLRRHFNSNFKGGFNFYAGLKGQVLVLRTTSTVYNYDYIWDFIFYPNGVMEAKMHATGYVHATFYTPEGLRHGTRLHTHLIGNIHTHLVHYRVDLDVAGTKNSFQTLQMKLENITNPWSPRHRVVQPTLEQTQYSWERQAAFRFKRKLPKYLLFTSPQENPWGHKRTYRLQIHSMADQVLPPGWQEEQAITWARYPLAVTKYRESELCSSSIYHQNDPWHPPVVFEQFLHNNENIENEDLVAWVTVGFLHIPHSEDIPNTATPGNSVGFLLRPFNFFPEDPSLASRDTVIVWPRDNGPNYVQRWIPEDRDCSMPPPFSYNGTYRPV
An aliquot of 3 μL of the compound dilution is added to a 384 well plate (Optiplate, PS, flat bottom F, black, PERKIN ELMER, #6007270) in a DMSO concentration of 6.6%.
An AOC1 enzyme aliquot (#8297-AO-010, R&D Systems) is thawed on ice, diluted in reaction buffer and added in a volume of 7 μL to the wells to give a final assay concentration of 1 ng/well. After incubation of inhibitor and enzyme for 30 minutes at 37° C., the enzymatic reaction is started with the addition of 10 μL of Amplex® Red reaction mix (final assay concentration: 100 mM sodiumphosphate, 120 μM Amplex® Red reagent (#A22177 Molecular Probes), 1.5 U/mL Horseradish Peroxidase (#P8375 Sigma-Aldrich), 200 μM putrescine (#P7505 Sigma-Alrdich), 0.05% Pluronic F-127 (#P3000MP Sigma-Aldrich), pH 7.4, 37° C.).
After an incubation for 30 minutes at 37° C. the turnover of the substrate is determined directly (or after the addition of an excess of an amine-oxidase inhibitor) with a fluorescence reader (Ex 540 nm/Em 590 nm) like Envision 2104 Multilabel Reader (PERKIN ELMER).

Like-named read-outs stand apart in the source and are kept apart here. A value given as a limit tells only on which side of the number the result lay.

AOC2, sequence (O75106 whole entry): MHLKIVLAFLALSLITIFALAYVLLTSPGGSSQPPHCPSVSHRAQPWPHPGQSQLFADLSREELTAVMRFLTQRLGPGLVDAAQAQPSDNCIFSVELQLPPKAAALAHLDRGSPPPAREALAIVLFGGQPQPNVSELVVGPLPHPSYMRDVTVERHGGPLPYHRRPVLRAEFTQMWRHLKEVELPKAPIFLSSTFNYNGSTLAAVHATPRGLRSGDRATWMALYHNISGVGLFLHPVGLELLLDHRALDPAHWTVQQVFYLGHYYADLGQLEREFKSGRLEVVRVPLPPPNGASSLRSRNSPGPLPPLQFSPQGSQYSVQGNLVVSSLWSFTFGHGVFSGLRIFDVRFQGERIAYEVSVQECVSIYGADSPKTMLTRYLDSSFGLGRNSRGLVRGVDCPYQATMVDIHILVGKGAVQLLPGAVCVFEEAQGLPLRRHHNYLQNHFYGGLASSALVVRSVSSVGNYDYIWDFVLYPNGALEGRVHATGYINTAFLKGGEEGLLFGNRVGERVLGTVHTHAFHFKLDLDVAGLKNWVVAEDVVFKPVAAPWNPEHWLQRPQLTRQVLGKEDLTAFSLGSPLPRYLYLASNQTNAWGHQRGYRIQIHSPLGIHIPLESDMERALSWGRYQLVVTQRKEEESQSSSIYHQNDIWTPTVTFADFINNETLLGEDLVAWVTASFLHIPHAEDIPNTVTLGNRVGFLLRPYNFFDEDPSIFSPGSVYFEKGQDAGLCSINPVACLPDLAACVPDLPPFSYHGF
human AOC3 enzyme, sequence (Q16853 whole entry): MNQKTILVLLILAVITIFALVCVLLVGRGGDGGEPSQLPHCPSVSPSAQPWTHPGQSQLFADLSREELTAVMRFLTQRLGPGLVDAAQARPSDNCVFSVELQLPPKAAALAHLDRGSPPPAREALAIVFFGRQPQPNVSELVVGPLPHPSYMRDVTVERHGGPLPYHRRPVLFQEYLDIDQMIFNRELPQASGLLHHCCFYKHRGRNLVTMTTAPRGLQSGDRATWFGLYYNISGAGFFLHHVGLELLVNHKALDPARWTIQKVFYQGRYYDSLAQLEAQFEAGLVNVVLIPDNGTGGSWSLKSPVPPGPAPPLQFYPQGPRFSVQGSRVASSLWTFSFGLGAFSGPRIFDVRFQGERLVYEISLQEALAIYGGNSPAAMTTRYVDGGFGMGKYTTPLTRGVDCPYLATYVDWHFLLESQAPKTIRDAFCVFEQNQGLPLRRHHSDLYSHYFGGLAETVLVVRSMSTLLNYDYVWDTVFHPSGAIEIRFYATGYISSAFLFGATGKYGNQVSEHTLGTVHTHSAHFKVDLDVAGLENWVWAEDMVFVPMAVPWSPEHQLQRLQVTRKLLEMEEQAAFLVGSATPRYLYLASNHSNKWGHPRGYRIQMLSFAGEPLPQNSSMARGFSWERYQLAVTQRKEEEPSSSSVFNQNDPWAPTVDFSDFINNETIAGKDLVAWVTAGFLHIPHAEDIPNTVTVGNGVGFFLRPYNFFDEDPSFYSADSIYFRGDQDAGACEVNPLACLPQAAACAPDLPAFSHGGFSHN

A word on the IC50: it is the concentration that gives 50% inhibition. Regarding `CC(=O)N(C)C1CCN(S(=O)(=O)c2ccc(OC/C(=C/F)CN)nc2)CC1` [Example 20], the values for the IC50 at human AOC3 enzyme, on AOC2 and on AOC1 (read-out: AOC1 IC50) were 54 nM, 192 nM and more than 50 µM, respectively.
On the same counts, the results for `CN1CCN(C2CCN(S(=O)(=O)c3ccc(OC/C(=C/F)CN)nc3)CC2)C1=O` [Example 21] are 20 nM, 190 nM and more than 50 µM.
Regarding `COC(=O)CC1CCN(S(=O)(=O)c2ccc(OC/C(=C/F)CN)nc2)CC1` [Example 22], the results for the IC50 on human AOC3 enzyme, at AOC2 and on AOC1 (read-out: AOC1 IC50) were 11 nM, 188 nM and more than 50 µM, respectively.
On the same counts, the results for `CC(=O)NC1CCN(S(=O)(=O)c2ccc(OC/C(=C/F)CN)nc2)C1` (centres unmarked) [Example 23] are 62 nM, 180 nM and more than 50 µM.
`NC/C(=C\F)COc1ccc(S(=O)(=O)N2CC[C@H](C(=O)N3CCOCC3)C2)cn1` [Example 25]: the IC50 at human AOC3 enzyme came to 36 nM; at AOC2, 164 nM; on AOC1 (read-out: AOC1 IC50), 26.7 µM.
Consider `CC(C)(O)C1CN(S(=O)(=O)c2ccc(OC/C(=C/F)CN)nc2)C1` [Example 26], for which the IC50 was 45 nM on human AOC3 enzyme, 164 nM on AOC2 and more than 50 µM at AOC1 (read-out: AOC1 IC50).
On the same counts, the results for `CN(C)C(=O)[C@H]1CCN(S(=O)(=O)c2ccc(OC/C(=C/F)CN)nc2)C1` [Example 27] are 51 nM, 160 nM and more than 50 µM.
On the same counts, the results for `CN(C)C(=O)C1CN(S(=O)(=O)c2ccc(OC/C(=C/F)CN)nc2)C1` [Example 28] are 42 nM, 158 nM and more than 49.9 µM.
On the same counts, the results for `NC/C(=C\F)COc1ccc(S(=O)(=O)N2C[C@H]3C[C@@]3(C(=O)N3CCOCC3)C2)cn1` [Example 30] are 46 nM, 126 nM and 11.4 µM.
Turning to `NC/C(=C\F)COc1ccc(S(=O)(=O)N2CC(C(N)=O)C2)cn1` [Example 31], the IC50 is 21 nM on human AOC3 enzyme, 121 nM at AOC2 and more than 50 µM on AOC1 (read-out: AOC1 IC50).
The like results for `NC/C(=C\F)COc1ccc(S(=O)(=O)N2CC(C3CCN(C(=O)C4CC4)CC3)C2)cn1` [Example 32] were, in that order, 17 nM, 73 nM and 39.5 µM.
For `NC/C(=C\F)COc1ccc(S(=O)(=O)N2CC[C@@H](C(N)=O)C2)cn1` [Example 33], the IC50 on human AOC3 enzyme came out at 15 nM; at AOC2 it was 49 nM; at AOC1 (read-out: AOC1 IC50), 33 µM.
On the same counts, the results for `CCNC(=O)C1(C)CCN(S(=O)(=O)c2ccc(OC/C(=C/F)CN)nc2)CC1` [Example 34] are 14 nM, 14 nM and 15.8 µM.
Consider `NC/C(=C\F)COc1ccc(S(=O)(=O)N2CC[C@H](O)C2)cn1` [Example 35, (S)-1-[6-((E)-2-Aminomethyl-3-fluoro-allyloxy)-pyridine-3-sulfonyl]-pyrrolidin-3-ol], for which the IC50 at human AOC3 enzyme was 38 nM; at AOC2, 207 nM; at AOC1 (comparison table, unit μM, read-out: IC50 AOC1), more than 50 µM; at AOC1 (read-out: AOC1 IC50) it was more than 50 µM. Besides, at AOC2, the “fold less active against AOC2 as compared to AOC3 (ratio IC50 AOC2/IC50 AOC3)” value is reported as “ca. 5 fold”.

Values taken from patent publication US12178809B2, “Pyridinyl sulfonamide derivatives, pharmaceutical compositions and uses thereof” (Boehringer Ingelheim International GmbH, priority 2018, dated 2024).
